Test results reported in patent US10544130B2, “Metallo-beta-lactamase inhibitors” (priority 2015, dated 2020).

Key:
[1] = test system: Klebsiella pneumoniae expressing VIM-1 (IHMA599644); type: cell-based; conditions: with imipenem 1 μg/ml; 95% inhibition of bacterial growth
How it was run: (§1)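 Growth read by absorbance after 22–24 h at 35 °C in CAMHB, with test compound alone or combined with 1 μg/ml imipenem. Inocula came from overnight 35 °C blood-agar colonies, set to a defined OD600 and diluted 1:100. Value is the inhibitor concentration giving synergy.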

[2] = test system: Pseudomonas aeruginosa PAO1 MB9798 (efflux+, IMP-1); conditions: ratio MITC95 PA 9798/MITC95 PA 9799; imipenem at 2 μg/mL
How it was run: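 Isogenic PAO1 pair (efflux+ MB9798, efflux− MB9799, both IMP-1) tested by microbroth MIC with fixed imipenem and/or ceftazidime, usually at CLSI breakpoint, plus fixed class A/C inhibitor against AmpC. MBL inhibitor titrated; concentration restoring susceptibility recorded and fold difference between strains taken as efflux extent.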

[3] = test system: Escherichia coli expressing NDM-1 (CLB30005, CLB30016); type: cell-based; conditions: with imipenem 1 μg/ml; 95% inhibition of bacterial growth
How it was run: as §1

[4] = test system: Serratia marcescens expressing IMP-1 (CL5741); type: cell-based; conditions: with imipenem 1 μg/ml; 95% inhibition of bacterial growth
How it was run: as §1

| Compound | Klebsiella pneumoniae (VIM-1) MITC95 [1] | Efflux ratio [2] | Escherichia coli (NDM-1) MITC95 [3] | Serratia marcescens (IMP-1) MITC95 [4] |
| --- | --- | --- | --- | --- |
| Nc1ncccc1-c1ccc(S(=O)(=O)NC[C@@H]2CNCCN2)c(S(N)(=O)=O)c1-c1nn[nH]n1 [Example 313, (S)-4-(2-aminopyridin-3-yl)-N1-(piperazin-2-ylmethyl)-3-(2H-tetrazol-5-yl)benzene-1,2-disulfonamide] | 3.125 µM | 2.00 |  |  |
| CNc1nc2c(-c3ccc(S(=O)(=O)N[C@@H]4CCNC4)c(S(N)(=O)=O)c3-c3nn[nH]n3)cccc2[nH]1 [Example 280, (R)-4-(2-(methylamino)-1H-benzo[d]imidazol-4-yl)-N1-(pyrrolidin-3-yl)-3-(2H-tetrazol-5-yl)benzene-1,2-disulfonamide] |  | 0.50 | 0.7813 µM | 0.7813 µM |
| Nc1nc(-c2cccc(-c3ccc(S(=O)(=O)N[C@H]4CCNC4)c(S(N)(=O)=O)c3-c3nn[nH]n3)c2)c[nH]1 [Example 294, (S)-3′-(2-amino-1H-imidazol-4-yl)-N4-(pyrrolidin-3-yl)-2-(2H-tetrazol-5-yl)-[1,1′-biphenyl]-3,4-disulfonamide] | 1.563 µM | 2.00 |  |  |
| Nc1ccc(-c2ccc(S(=O)(=O)NC[C@@H]3CCCN3)c(S(N)(=O)=O)c2-c2nn[nH]n2)cn1 [Example 488, (S)-4-(6-aminopyridin-3-yl)-N1-(pyrrolidin-2-ylmethyl)-3-(2H-tetrazol-5-yl)benzene-1,2-disulfonamide] | 1.563 µM |  |  |  |
| N[C@H]1CNC[C@H]1NS(=O)(=O)c1ccc(-c2cnc3cc[nH]c3c2)c(-c2nn[nH]n2)c1S(N)(=O)=O [Example 320] |  | 2.00 | 0.7813 µM | 0.7813 µM |
| Nc1nc2c(-c3ccc(S(=O)(=O)NC[C@]4(N)CCNC4)c(S(N)(=O)=O)c3-c3nn[nH]n3)cccc2s1 [Example 366, (S)-4-(2-aminobenzo[d]thiazol-4-yl)-N^1-((3-aminopyrrolidin-3-yl)methyl)-3-(2H-tetrazol-5-yl)benzene-1,2-disulfonamide] |  | 1.00 | 0.7813 µM | 1.563 µM |
| NCCNS(=O)(=O)c1ccc(-c2ccnc(N)c2)c(-c2nn[nH]n2)c1S(N)(=O)=O [Example 400, N^1-(2-aminoethyl)-4-(2-aminopyridin-4-yl)-3-(2H-tetrazol-5-yl)benzene-1,2-disulfonamide] | 1.563 µM |  |  |  |
| NCCNS(=O)(=O)c1ccc(-c2ccccc2NC(=O)CN)c(-c2nn[nH]n2)c1S(N)(=O)=O [Example 452, 2-Amino-N-(4′-(N-(2-aminoethyl)sulfamoyl)-3′-sulfamoyl-2′-(2H-tetrazol-5-yl)-[1,1′-biphenyl]-2-yl)acetamide] | 6.25 µM |  |  |  |
| NCCCNC(=O)c1cccc(-c2ccc(S(=O)(=O)NCCN)c(S(N)(=O)=O)c2-c2nn[nH]n2)c1 [Example 341, 4′-(N-(2-aminoethyl)sulfamoyl)-N-(3-aminopropyl)-3′-sulfamoyl-2′-(2H-tetrazol-5-yl)-[1,1′-biphenyl]-3-carboxamide] |  | 2.00 | 0.7813 µM | 1.563 µM |
| NS(=O)(=O)c1c(S(=O)(=O)N[C@@H]2CCNC2)ccc(-c2cccc3ncccc23)c1-c1nn[nH]n1 [Example 287, (R)-N1-(pyrrolidin-3-yl)-4-(quinolin-5-yl)-3-(2H-tetrazol-5-yl)benzene-1,2-disulfonamide] |  | 1.00 | 1.563 µM | 1.563 µM |
| NC[C@H](O)CNS(=O)(=O)c1ccc(-c2cccc3[nH]c(N)nc23)c(-c2nn[nH]n2)c1S(N)(=O)=O [Example 304, (S)-4-(2-amino-1H-benzo[d]imidazol-4-yl)-N1-(3-amino-2-hydroxypropyl)-3-(2H-tetrazol-5-yl)-benzene-1,2-disulfonamide] |  | 0.50 | 0.3906 µM | 0.7813 µM |
| NC[C@H](CO)NS(=O)(=O)c1ccc(-c2cccc(N)n2)c(-c2nn[nH]n2)c1S(N)(=O)=O [Example 364, (R)—N^1-(1-amino-3-hydroxypropan-2-yl)-4-(6-aminopyridin-2-yl)-3-(2H-tetrazol-5-yl)benzene-1,2-disulfonamide] |  | 2.00 | 3.125 µM | 3.125 µM |
| Nc1ncc(-c2ccc(S(=O)(=O)N[C@@H]3CNC[C@@H]3N)c(S(N)(=O)=O)c2-c2nn[nH]n2)s1 [Example 321, N^1-((3R,4S)-4-aminopyrrolidin-3-yl)-4-(2-aminothiazol-5-yl)-3-(2H-tetrazol-5-yl)benzene-1,2-disulfonamide] |  | 2.00 | 0.7813 µM | 1.563 µM |
| NC(=O)c1nc2c(-c3ccc(S(=O)(=O)N[C@@H]4CCNC4)c(S(N)(=O)=O)c3-c3nn[nH]n3)cccc2[nH]1 [Example 271, (R)-4-(4-(N-(pyrrolidin-3-yl)sulfamoyl)-3-sulfamoyl-2-(2H-tetrazol-5-yl)phenyl)-1H-benzo[d]imidazole-2-carboxamide] |  | 0.50 | 1.563 µM | 0.7813 µM |
| NCC(CN)NS(=O)(=O)c1ccc(-c2ccc(N)nc2)c(-c2nn[nH]n2)c1S(N)(=O)=O [Example 404, 4-(6-aminopyridin-3-yl)-N^1-(1,3-diaminopropan-2-yl)-3-(2H-tetrazol-5-yl)benzene-1,2-disulfonamide] | 1.172 µM |  |  |  |
| NCCNS(=O)(=O)c1ccc(-c2cccc(SCC(N)CO)c2)c(-c2nn[nH]n2)c1S(N)(=O)=O (centres unmarked) [Example 354, 3′-((2-amino-3-hydroxypropyl)thio)-N4-(2-aminoethyl)-2-(2H-tetrazol-5-yl)-[1,1′-biphenyl]-3,4-disulfonamide] |  | 4.00 | 0.3906 µM | 1.563 µM |
| CNc1ccc(-c2ccc(S(=O)(=O)N[C@@H]3CCNC3)c(S(N)(=O)=O)c2-c2nn[nH]n2)cn1 [Example 242] |  | 1.00 | 0.7813 µM | 0.7813 µM |
| CNc1nc2c(-c3ccc(S(=O)(=O)N[C@H]4CCNC4)c(S(N)(=O)=O)c3-c3nn[nH]n3)cccc2[nH]1 [Example 295, (S)-4-(2-(methylamino)-1H-benzo[d]imidazol-4-yl)-N1-(pyrrolidin-3-yl)-3-(2H-tetrazol-5-yl)benzene-1,2-disulfonamide] |  | 1.00 | 0.7813 µM | 0.7813 µM |
| NCC(CO)(CO)NS(=O)(=O)c1ccc(-c2cccc3[nH]c(N)nc23)c(-c2nn[nH]n2)c1S(N)(=O)=O [Example 247, 4-(2-amino-1H-benzo[d]imidazol-4-yl)-N-1-(1-amino-3-hydroxy-2-(hydroxymethyl)propan-2-yl)-3-(2H-tetrazol-5-yl)benzene-1,2-disulfonamide] |  | 2.00 | 0.7813 µM | 1.563 µM |
| Cn1c(N)nc2c(-c3ccc(S(=O)(=O)NC[C@H](O)CN)c(S(N)(=O)=O)c3-c3nn[nH]n3)cccc21 [Example 302, (R)-4-(2-amino-1-methyl-1H-benzo[d]imidazol-4-yl)-N1-(3-amino-2-hydroxypropyl)-3-(2H-tetrazol-5-yl)benzene-1,2-disulfonamide] |  | 1.00 | 0.7813 µM | 0.7813 µM |
| NC[C@H](N)CNS(=O)(=O)c1ccc(-c2ccc(N)nc2)c(-c2nn[nH]n2)c1S(N)(=O)=O [Example 415, (S)-4-(6-aminopyridin-3-yl)-N^1-(2,3-diaminopropyl)-3-(2H-tetrazol-5-yl)benzene-1,2-disulfonamide] | 3.125 µM |  |  |  |
| NS(=O)(=O)c1c(S(=O)(=O)N[C@@H]2CCNC2)ccc(-c2cnc3cc[nH]c3c2)c1-c1nn[nH]n1 [Example 282, (R)-N1-(pyrrolidin-3-yl)-4-(1H-pyrrolo[3,2-b]pyridin-6-yl)-3-(2H-tetrazol-5-yl)benzene-1,2-disulfonamide] |  | 1.00 | 0.7813 µM | 0.7813 µM |
| NC[C@H](N)CNS(=O)(=O)c1ccc(-c2cnc(N)s2)c(-c2nn[nH]n2)c1S(N)(=O)=O [Example 372, (S)-4-(2-aminothiazol-5-yl)-N1-(2,3-diaminopropyl)-3-(2H-tetrazol-5-yl)benzene-1,2-disulfonamide] |  | 2.00 | 1.563 µM | 1.563 µM |
| NCC(CN)NS(=O)(=O)c1ccc(-c2ccnc(N)c2)c(-c2nn[nH]n2)c1S(N)(=O)=O [Example 405, 4-(2-aminopyridin-4-yl)-N^1-(1,3-diaminopropan-2-yl)-3-(2H-tetrazol-5-yl)benzene-1,2-disulfonamide] | 25 µM |  |  |  |
| NC(=O)c1csc(Nc2cccc(-c3ccc(S(=O)(=O)N[C@@H]4CCNC4)c(S(N)(=O)=O)c3-c3nn[nH]n3)c2)n1 [Example 471, (R)-2-((4′-(N-(pyrrolidin-3-yl)sulfamoyl)-3′-sulfamoyl-2′-(2H-tetrazol-5-yl)-[1,1′-biphenyl]-3-yl)amino)thiazole-4-carboxamide] | 3.125 µM |  |  |  |
